Data on 6 molecules can be found in US6509010B2, “Cosmetic products for the reduction of sweat acidity” (Unilever Home & Personal Care USA, division of Conopco, Inc., priority 2001, dated 2003).

Read-outs that look alike come from different tables or passages of the source.

Experiment [1] deals with Staphylococcus epidermidis. To be noted: 80% or greater reduction in growth over 16 to 24 hours at 37° C., cited from earlier work.
The subject of experiment [2] is V-ATPase. Put plainly: Proton transfer inhibition: intracellular pH recovery after ammonium chloride pulse in isolated, microperfused human eccrine sweat reabsorptive ducts (BCECF-type probe). The format is cell-based. To be noted: for Inhibition of proton transfer out of the cells of the reabsorptive duct: significant at the 95% level (Student t-test); for Rate of pH recovery (%): control = 100, after 20 mM basolateral ammonium chloride pulse, 37° C. As to the method:
Human eccrine sweat ducts were isolated using the Kealey shearing technique (Lee C. M., Jones C. J., and Kealey T., J. Cell. Sci., 72, 1984, 259-274). Isolated portions of reabsorptive duct were mounted on a conventional microperfusion apparatus, between glass pipettes. One end of the duct was cannulated with a microperfusion pipette. The ducts were perfused at 37° C. with a control solution containing N-methyl-D-glucamine chloride (114 mM), potassium hydrogenphosphate (2.5 mM), magnesium chloride (1 mM), calcium chloride (1 mM), glucose (5 mM), and N-methyl-D-glucamine lactate (4 mM). Osmolality was adjusted to 300 mOsm/kg with mannitol and the pH adjusted to 7.4 with tris-HEPES. Intracellular pH was measured using the pH sensitive fluorescent probe BCEFC (bis-2-carboxyethyl-carbfluorescein) at 5 μM.
[…].
In the next part of the procedure, the indicated sweat ducts were subjected to acidification by a 20 mM basolateral pulse of ammonium chloride, with the additional presence of a V-ATPase inhibitor.

One may read the MIC as the lowest concentration that inhibits growth of the organism.

Sequence of V-ATPase (P27449 whole entry, the tested form may be a part): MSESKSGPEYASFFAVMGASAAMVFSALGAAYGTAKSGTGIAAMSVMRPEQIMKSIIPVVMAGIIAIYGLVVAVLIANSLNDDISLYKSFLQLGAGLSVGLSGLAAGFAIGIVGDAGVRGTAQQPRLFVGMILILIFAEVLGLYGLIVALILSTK

Consider `Oc1cc(Cl)ccc1Oc1ccc(Cl)cc1Cl` [triclosan, 2′,4,4′-trichloro,2-hydroxy-diphenyl ether], for which the MIC in experiment [1] (literature values) was 0.01 to 10 µg/mL.

As to `CCO` [ethanol], the MIC result in experiment [1] (stated without source) is reported as “greater than 1 mg.ml^−1”.

For the molecule olygomycin, the “Inhibition of proton transfer out of the cells of the reabsorptive duct” value (“Inhibition” for short) in experiment [2] (at 20 μg/ml) is listed as “inhibit proton transfer”. In addition, the “Rate of pH recovery (%)” value in experiment [2] (inhibitor at 20 μg/ml) was found to be 12%.

Turning to `CO/C1=C\C(C)=C\[C@@H](C)[C@@H](O)[C@@H](C)C/C(C)=C/C=C/[C@H](OC)[C@@H]([C@@H](C)[C@@H](O)[C@H](C)[C@@]2(O)C[C@@H](O)[C@H](C)[C@@H](C(C)C)O2)OC1=O` [Bafilomycin-A1, bafilomycin A1], the “Inhibition” value in experiment [2] (at 6.2 μg/ml) is “inhibit proton transfer”. Moreover, the “Rate of pH recovery (%)” value in experiment [2] (inhibitor at 6.2 μg/ml) worked out at 27%.

Consider `C/C=C/[C@H]1O[C@@](O)([C@@H](C)[C@H](O)[C@H](C)[C@H]2OC(=O)/C(OC)=C/C(C)=C/[C@@H](C)[C@@H](O)[C@@H](CC)[C@@H](O)[C@H](C)C/C(C)=C/C=C/[C@@H]2OC)C[C@@H](O[C@H]2C[C@@H](O)[C@H](OC(N)=O)[C@@H](C)O2)[C@@H]1C` [Concanamycin-A, concanamycin A], for which the “Inhibition” value in experiment [2] (at 0.1 μg/ml) is recorded as “inhibit proton transfer”. Further, the “Rate of pH recovery (%)” value in experiment [2] (inhibitor at 0.1 μg/ml) stood at 5%.

For the molecule `CC(C)=CCCC(C)=CCCC(C)=CCO` [farnesol, 3,7,11-trimethyldodeca-2,6,10-trienol], in experiment [1] (literature values), the MIC result is listed as “ca. 25 μg.ml^−1”.
